Assay results reported in patent publication US5756488A, “Composition for improving calcium metabolism” (Kuraray Co., Ltd., priority 1995, dated 1998).

Tests used:
[1] = biological target: T1, vitamin D-binding protein (Rattus norvegicus, UniProt P04276); test: Assay of affinity for vitamin D-binding protein (displacement of tritium-labeled 25-hydroxyvitamin D3, serum of vitamin D-deficient rat); settings: ratio of ED50 with control = 1, for Compounds 1, 2 and 3 30% replacement values were used
T1 construct: from tissue; host or cells: serum of vitamin D-deficient rat, diluted 1:10000, protein not purified
T1 sequence (P04276 17-476): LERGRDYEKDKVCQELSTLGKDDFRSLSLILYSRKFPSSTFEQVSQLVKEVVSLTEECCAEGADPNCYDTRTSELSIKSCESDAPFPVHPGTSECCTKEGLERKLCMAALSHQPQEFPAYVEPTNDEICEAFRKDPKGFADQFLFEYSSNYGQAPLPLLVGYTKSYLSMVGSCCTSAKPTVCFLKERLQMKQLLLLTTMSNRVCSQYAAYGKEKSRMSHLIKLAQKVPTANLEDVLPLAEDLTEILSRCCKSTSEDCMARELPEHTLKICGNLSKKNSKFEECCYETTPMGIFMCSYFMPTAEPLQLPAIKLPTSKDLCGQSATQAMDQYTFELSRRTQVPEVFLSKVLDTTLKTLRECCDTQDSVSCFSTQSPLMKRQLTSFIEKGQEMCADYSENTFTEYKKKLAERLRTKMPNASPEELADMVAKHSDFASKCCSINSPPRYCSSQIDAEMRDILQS
Method: Assay of Affinity for Vitamin D-Binding Protein
The serum of vitamin D-deficient rat was diluted 1:10000 with 3.5 mM barbiturate buffer solution (pH 8.6) containing 0.13 M NaCl. […] Then, 500 μl of the diluted solution of vitamin D deficient rat serum was added to each culture tube, which was then subjected to vortex stirring. After incubation at 4° C. for 1 hour, 250 μL of DCC suspension was added and vortex-stirred. Each of the culture tubes was allowed to stand for 15 minutes at 4° C., and centrifuged at 3000 rpm at 4° C. for 10 minutes.

[2] = tested on: 1,25-dihydroxyvitamin D3 receptor; settings: from the literature; cited from earlier work
[3] = tested on: vitamin D-binding protein; settings: from the literature; cited from earlier work
[4] = Acute toxicity tests; settings: in vivo

SMILES | Affinity for vitamin D-binding protein relative to 1α,25-dihydroxyvitamin D3 [1] | further results
C=C1/C(=C\C=C2/CCC[C@]3(C)[C@@H]([C@H](C)OCCC(C)(C)O)CC[C@@H]23)C[C@@H](O)C[C@@H]1O [22-oxa-1,25-dihydroxyvitamin D3] |  | Affinity for the D3 receptor relative to 1,25-dihydroxyvitamin D3 [2]: one-eighth; Affinity for vitamin D-binding protein relative to 1,25-dihydroxyvitamin D3 [3]: about one six-hundredth
C=C1/C(=C\C=C2/CCC[C@]3(C)[C@@H]([C@@H](C)[C@H](C)CCC(C)(C)O)CC[C@@H]23)C[C@@H](O)C[C@@H]1O [Compound 1, (20S,22R)-22-methyl-1α,25-dihydroxyvitamin D3] | 1/500 and lowest affinity | Toxicity in acute toxicity tests [4]: low toxicity; Affinity for vitamin D-binding protein relative to 1α,25-dihydroxyvitamin D3 ([1]; listed as (20S,22R)-22-methyl-1α,25-dihydroxyvitamin D3): one five-hundredth and low

Now from value to compound, other results behind:

Affinity for vitamin D-binding protein relative to 1α,25-dihydroxyvitamin D3 [1] | SMILES | further results
1/220 | C=C1/C(=C\C=C2/CCC[C@]3(C)[C@@H]([C@H](C)[C@H](C)CCC(C)(C)O)CC[C@@H]23)C[C@@H](O)C[C@@H]1O [Compound 3, (20R,22R)-22-methyl-1α,25-dihydroxyvitamin D3] | 
2/3 | C=C1/C(=C\C=C2/CCC[C@]3(C)[C@@H]([C@H](C)[C@@H](C)CCC(C)(C)O)CC[C@@H]23)C[C@@H](O)C[C@@H]1O [Compound 4, (20R,22S)-22-methyl-1α,25-dihydroxyvitamin D3] | 
1/500 | C=C1/C(=C\C=C2/CCC[C@]3(C)[C@@H]([C@@H](C)[C@@H](C)CCC(C)(C)O)CC[C@@H]23)C[C@@H](O)C[C@@H]1O [Compound 2, (20S,22S)-22-methyl-1α,25-dihydroxyvitamin D3] | 
